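Here, GI50 denotes the concentration required for 50% inhibition of growth. TGI: total growth inhibition.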
Legend:
Assay in all cases: NCI tumour cell line growth inhibition, 384-well format
NCI-H23 lung = system: NCI-H23 lung
NCI-H322M lung = system: NCI-H322M lung
NCI-H460 NSCLC = system: NCI-H460 NSCLC
NCI-H522 lung = system: NCI-H522 lung
NCI/ADR-RES ovarian = system: NCI/ADR-RES ovarian
OVCAR-3 ovarian = system: OVCAR-3 ovarian
OVCAR-4 ovarian = system: OVCAR-4 ovarian
OVCAR-5 ovarian = system: OVCAR-5 ovarian
OVCAR-8 ovarian = system: OVCAR-8 ovarian
PC-3 prostate = system: PC-3 prostate
RPMI-8226 leukemia = system: RPMI-8226 leukemia
RXF 393 renal = system: RXF 393 renal
SF-268 CNS = system: SF-268 CNS
SF-295 CNS = system: SF-295 CNS
SF-539 CNS = system: SF-539 CNS
SK-MEL-28 melanoma = system: SK-MEL-28 melanoma
SK-MEL-5 melanoma = system: SK-MEL-5 melanoma
SK-OV-3 ovarian = system: SK-OV-3 ovarian
SN12C renal = system: SN12C renal
SNB-19 CNS = system: SNB-19 CNS
SNB-75 CNS = system: SNB-75 CNS
SR leukemia = system: SR leukemia
T-47D breast = system: T-47D breast
TK-10 renal = system: TK-10 renal
U251 glioblastoma = system: U251 glioblastoma
UACC-257 melanoma = system: UACC-257 melanoma
UACC-62 melanoma = system: UACC-62 melanoma

For `O=C(Oc1ccc([N+](=O)[O-])cc1)N1CCN(Cc2cccc(Oc3ccccc3)c2)CC1`, the GI50 (NCI-H23 lung) was 53.8 µM, the TGI (NCI-H23 lung) was over 100 µM and the GI50 (NCI-H322M lung) was 46.2 µM. For the same compound, the TGI (NCI-H322M lung) was over 100 µM, the GI50 (NCI-H460 NSCLC) was 21.6 µM and the TGI (NCI-H460 NSCLC) was 59.6 µM. The GI50 (NCI-H522 lung) was 22.9 µM, the TGI (NCI-H522 lung) was over 100 µM and the GI50 (NCI/ADR-RES ovarian) was 27.5 µM. For the same compound, the TGI (NCI/ADR-RES ovarian) was over 100 µM, the GI50 (OVCAR-3 ovarian) was over 100 µM and the TGI (OVCAR-3 ovarian) was over 100 µM. It also gave a GI50 (OVCAR-4 ovarian) of 30.9 µM, a TGI (OVCAR-4 ovarian) of over 100 µM and a GI50 (OVCAR-5 ovarian) of over 100 µM. It also gave a TGI (OVCAR-5 ovarian) of over 100 µM, a GI50 (OVCAR-8 ovarian) of over 100 µM and a TGI (OVCAR-8 ovarian) of over 100 µM. For the same compound, the GI50 (PC-3 prostate) was over 100 µM, the TGI (PC-3 prostate) was over 100 µM and the GI50 (RPMI-8226 leukemia) was 25.4 µM. For the same compound, the TGI (RPMI-8226 leukemia) was over 100 µM, the GI50 (RXF 393 renal) was 48 µM and the TGI (RXF 393 renal) was over 100 µM. The GI50 (SF-268 CNS) was over 100 µM, the TGI (SF-268 CNS) was over 100 µM and the GI50 (SF-295 CNS) was over 100 µM. For the same compound, the TGI (SF-295 CNS) was over 100 µM, the GI50 (SF-539 CNS) was over 100 µM and the TGI (SF-539 CNS) was over 100 µM. The GI50 (SK-MEL-28 melanoma) was over 100 µM, the TGI (SK-MEL-28 melanoma) was over 100 µM and the GI50 (SK-MEL-5 melanoma) was 18 µM. For the same compound, the TGI (SK-MEL-5 melanoma) was 55.2 µM, the GI50 (SK-OV-3 ovarian) was over 100 µM and the TGI (SK-OV-3 ovarian) was over 100 µM. The GI50 (SN12C renal) was 33.8 µM, the TGI (SN12C renal) was over 100 µM and the GI50 (SNB-19 CNS) was over 100 µM. It also gave a TGI (SNB-19 CNS) of over 100 µM, a GI50 (SNB-75 CNS) of over 100 µM and a TGI (SNB-75 CNS) of over 100 µM. The GI50 (SR leukemia) was 16.7 µM, the TGI (SR leukemia) was 32.9 µM and the GI50 (T-47D breast) was 30.6 µM. For the same compound, the TGI (T-47D breast) was over 100 µM, the GI50 (TK-10 renal) was 46.7 µM and the TGI (TK-10 renal) was over 100 µM. For the same compound, the GI50 (U251 glioblastoma) was over 100 µM, the TGI (U251 glioblastoma) was over 100 µM and the GI50 (UACC-257 melanoma) was 23.2 µM. The TGI (UACC-257 melanoma) was over 100 µM, the GI50 (UACC-62 melanoma) was over 100 µM and the TGI (UACC-62 melanoma) was over 100 µM.
